Measurements as given in ChEMBL document CHEMBL1955720 (Bioorg Med Chem, 2012).

Legend:
HEK293 = test: Inhibition of TNF-alpha activated NF-kappaB expressed in HEK293 cells at 50 uM by luciferase reporter gene assay; assay type: cell-based
[1] = biological target: NAD(P)H dehydrogenase [quinone] 1 (Mus musculus) (UniProt Q64669); test: Induction of QR1 in mouse Hepa-1c1c7 cells assessed as induction ratio at 50 uM by MTT assay; assay type: cell-based
Aromatase [2] = biological target: T1, Aromatase (Homo sapiens, UniProt P11511)
T1 sequence (P11511 whole entry): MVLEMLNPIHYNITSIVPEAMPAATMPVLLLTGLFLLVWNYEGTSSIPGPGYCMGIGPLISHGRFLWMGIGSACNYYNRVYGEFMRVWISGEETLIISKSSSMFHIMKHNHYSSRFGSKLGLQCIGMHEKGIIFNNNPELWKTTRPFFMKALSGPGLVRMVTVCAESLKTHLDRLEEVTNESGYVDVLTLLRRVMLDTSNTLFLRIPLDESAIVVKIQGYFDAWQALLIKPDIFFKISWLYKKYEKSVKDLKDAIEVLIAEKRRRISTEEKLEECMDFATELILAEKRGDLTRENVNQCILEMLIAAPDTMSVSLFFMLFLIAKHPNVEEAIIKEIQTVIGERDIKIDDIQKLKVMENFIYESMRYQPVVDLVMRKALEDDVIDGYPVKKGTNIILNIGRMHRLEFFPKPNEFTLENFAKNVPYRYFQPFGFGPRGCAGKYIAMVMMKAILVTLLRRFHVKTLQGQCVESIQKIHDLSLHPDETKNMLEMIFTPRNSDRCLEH

RAW264.7 [3] = test: Antiinflammatory activity in mouse RAW264.7 cells assessed as inhibition of LPS-induced NO production at 40 uM preincubated for 30 mins measured 24 hrs post LPS challenge by Griess method; assay type: functional
Aromatase [4] = biological target: T1, Aromatase; remark: listed apart in the source
[5] = biological target: NAD(P)H dehydrogenase [quinone] 1 (Mus musculus) (UniProt Q64669); test: Induction of QR1 in mouse Hepa-1c1c7 cells assessed as concentration required to double QR1 induction by MTT assay; assay type: cell-based
RAW264.7 [6] = test: Antiinflammatory activity in mouse RAW264.7 cells assessed as inhibition of LPS-induced NO production preincubated for 30 mins measured 24 hrs post LPS challenge by Griess method; assay type: functional, cell-based
[7] = Inhibition of TNF-alpha activated NF-kappaB expressed in HEK293 cells by luciferase reporter gene assay; assay type: cell-based
Aromatase [8] = biological target: T1, Aromatase; test: Inhibition of human aromatase using dibenzylfluorescein substrate at 20 uM after 30 mins by fluorescence assay; conditions: 0.5 h
[9] = biological target: T2, Nitric oxide synthase, inducible (Mus musculus, UniProt P29477)
T2 sequence (P29477 whole entry): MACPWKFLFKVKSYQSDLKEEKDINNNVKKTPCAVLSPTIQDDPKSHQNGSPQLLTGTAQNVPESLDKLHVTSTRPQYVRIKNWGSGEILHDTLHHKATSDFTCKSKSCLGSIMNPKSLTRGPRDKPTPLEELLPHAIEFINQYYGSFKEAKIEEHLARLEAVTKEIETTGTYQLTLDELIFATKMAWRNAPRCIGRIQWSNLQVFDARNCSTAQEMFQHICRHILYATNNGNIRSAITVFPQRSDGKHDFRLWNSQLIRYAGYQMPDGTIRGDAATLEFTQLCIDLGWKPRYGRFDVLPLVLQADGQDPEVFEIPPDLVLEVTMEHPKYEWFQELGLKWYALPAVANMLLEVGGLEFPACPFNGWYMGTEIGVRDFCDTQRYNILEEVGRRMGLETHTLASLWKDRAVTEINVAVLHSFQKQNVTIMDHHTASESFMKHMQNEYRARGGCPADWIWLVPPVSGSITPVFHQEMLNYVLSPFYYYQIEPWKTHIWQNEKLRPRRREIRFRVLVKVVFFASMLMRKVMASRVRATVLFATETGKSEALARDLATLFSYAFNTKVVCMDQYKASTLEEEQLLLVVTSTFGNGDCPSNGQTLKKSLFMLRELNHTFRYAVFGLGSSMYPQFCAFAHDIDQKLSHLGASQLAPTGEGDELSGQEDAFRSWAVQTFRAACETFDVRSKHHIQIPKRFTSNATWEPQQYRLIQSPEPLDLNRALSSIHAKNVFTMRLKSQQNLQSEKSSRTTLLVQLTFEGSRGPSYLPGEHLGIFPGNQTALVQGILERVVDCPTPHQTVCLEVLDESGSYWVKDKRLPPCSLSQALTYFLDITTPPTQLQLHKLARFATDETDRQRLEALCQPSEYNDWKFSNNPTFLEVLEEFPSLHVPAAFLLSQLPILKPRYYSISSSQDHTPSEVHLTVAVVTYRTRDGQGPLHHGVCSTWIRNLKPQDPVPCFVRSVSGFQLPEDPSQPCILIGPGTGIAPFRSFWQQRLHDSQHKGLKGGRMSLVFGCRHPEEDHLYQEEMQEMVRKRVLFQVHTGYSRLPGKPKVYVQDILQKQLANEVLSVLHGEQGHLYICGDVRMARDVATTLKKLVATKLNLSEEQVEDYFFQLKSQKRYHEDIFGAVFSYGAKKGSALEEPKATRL
Description: Inhibition of iNOS in LPS-stimulated mouse RAW264.7 cells after 18 hrs

MCF7 = test: cells; conditions: Homo sapiens
Description: Cytotoxicity against human MCF7 cells by SRB assay

Sequence of NAD(P)H dehydrogenase [quinone] 1 (Mus musculus) (Q64669 whole entry): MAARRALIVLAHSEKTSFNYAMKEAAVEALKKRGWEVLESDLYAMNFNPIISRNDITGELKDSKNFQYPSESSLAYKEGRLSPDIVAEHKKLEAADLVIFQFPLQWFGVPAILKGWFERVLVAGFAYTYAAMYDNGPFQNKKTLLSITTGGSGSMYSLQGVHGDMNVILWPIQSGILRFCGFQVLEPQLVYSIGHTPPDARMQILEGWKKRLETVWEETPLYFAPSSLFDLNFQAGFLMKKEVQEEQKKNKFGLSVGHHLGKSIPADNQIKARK

Row | Compound | inhibition (HEK293) [%] | Ratio [1] | IC50 (Aromatase [2]) [nM] | inhibition at 40 µM (RAW264.7 [3]) [%] | Ki (Aromatase [4]) [nM] | CD [5] [µM] | IC50 (RAW264.7 [6]) [nM] | IC50 [7] [nM] | inhibition (INH) (Aromatase [8]) | IC50 [9] [nM] | IC50 (MCF7) [nM]
1 | Oc1ccc(-c2nc(-c3cccnc3)cs2)cc1 | 52.9 | 0.87 | 11200 | 35.7 | 2550 |  |  |  |  |  | 
2 | Brc1cccc(-c2nc(-c3cccnc3)ns2)c1 | 12.9 | 9.2 | 6730 |  | 1160 | 0.06 |  |  |  |  | 
3 | COc1cc(-c2nc(-c3cccnc3)cs2)ccn1 | -4.9 | 0.7 | 23 | 54.7 | 0.65 |  | 47800 |  |  |  | 
4 | COc1ccc(-c2csc(-c3ccncc3)n2)cn1 | 6 |  |  | 32.1 |  |  |  |  |  |  | 
5 | Clc1ccc(-c2nc(-c3cccnc3)cs2)cc1 | 54 |  |  | 76.3 |  | 32 |  | 10400 |  |  | 
6 | c1ccc(-c2nc(-c3cccnc3)cs2)cc1 | 50.3 | 1.45 | 900 | 60.1 | 63.4 |  |  | 17700 |  |  | 
7 | Brc1ccc(-c2csc(-c3ccncc3)n2)cn1 |  | 1.5 | 2680 | 8.6 | 285 |  |  |  | Active |  | 
8 | COc1cccc(-c2nc(-c3cccnc3)ns2)c1 | 22.4 |  |  |  |  | 0.08 |  |  |  |  | 
9 | Brc1ccc(-c2nc(-c3cccnc3)cs2)cc1 | 46.8 | 4.27 | 7920 | 72.5 | 1720 | 32.8 |  | 19900 |  |  | 
10 | Clc1cc(-c2nc(-c3cccnc3)cs2)ccn1 |  |  |  | -5.2 |  |  |  |  |  |  | 
11 | Oc1ccc(/C=C/c2cc(O)cc(O)c2)cc1 [RESVERATROL] |  |  |  |  |  |  |  |  |  | 23200 | 87600
12 | CCOc1ccc(-c2csc(-c3ccncc3)n2)cn1 | -2.4 | 1.1 | 1360 | 28.1 | 100 |  |  |  | Active |  | 
13 | Brc1ccc(-c2csc(-c3cccnc3)n2)cn1 | 16.4 | 5.1 | 7410 | 22.7 | 1480 | 20.1 |  |  | Active |  | 
14 | COc1ccc(-c2nc(-c3cccnc3)cs2)cc1 | 59.9 | 1.1 | 18000 | 48.3 | 15000 |  |  |  |  |  | 
15 | Fc1ccc(-c2nc(-c3cccnc3)cs2)cc1 | 28.8 |  |  | 54.6 |  |  |  |  |  |  | 
16 | c1cncc(-c2csc(-c3ccncc3)n2)c1 | 68.8 |  |  |  |  |  |  | 2550 |  |  | 
17 | COc1ccc(-c2csc(-c3cccnc3)n2)cn1 |  |  |  | 16.3 |  |  |  |  |  |  | 
